Results: patent publication US9512140B2, “(Thieno[2,3-b][1,5]benzoxazepin-4-yl)piperazin-1-yl compounds as dual activity H1 inverse agonists/5-HT2A antagonists” (priority 2011, dated 2016)

System: Rats
Assay: Sleep and behavioral monitoring in rats (EEG, EMG, motion)
Format: in vivo
Conditions: for Rebound Insomnia, Adj. Mean: NREM+REM sleep in 7th-9th hours post-treatment; for Rebound Insomnia, Adj. Mean / REM inhibition, Adj. Mean / Cumulative Total sleep, Adj. Mean / Locomotor Activity Intensity, Adj. Mean: difference from vehicle; for REM inhibition, Adj. Mean: cumulative REM sleep, first 12 hr. post-treatment; for Average Sleep Bout, Adj. Mean / Longest Sleep Bout, Adj. Mean / Cumulative Total sleep, Adj. Mean / Cumulative NREM sleep, Adj. Mean / Locomotor Activity Intensity, Adj. Mean: first 6 hr. post-treatment; for Cumulative Total sleep, Adj. Mean: NREM+REM; for Cumulative NREM sleep, Adj. Mean: adjusted difference from vehicle controls
Procedure: The compound of the present invention is tested in rats for its ability to increase the amount of sleep or decrease sleep interruption or both without undesired effects such as inhibition of REM sleep, waking motor impairment, and/or rebound insomnia. Test animals are continuously monitored by electro-encephalograms (EEG), electromyograms (EMG), and motion to measure cumulative nonREM sleep, cumulative total sleep, average sleep bout duration, longest sleep bout duration, rebound insomnia. REM sleep inhibition and locomotor activity intensity during wakefulness. Methods for such studies are known in the art (see for example methods described in Edgar D M, Seidel W F. Modafinil induces wakefulness without intensifying motor activity or subsequent rebound hypersomnolence in the rat. J Pharmacology & Experimental Therapeutics 1997; 283: 757-769; van Gelder R N, Edgar D M, Dement W C. Real-time automated sleep scoring: validation of a microcomputer-based system for mice. Sleep 1991, 14: 48-55; and Gross B A, Walsh C M, Turakhia A A, Booth V, Mashour G A, Poe G R. Open-source logic-based automated sleep scoring software using electrophysiological recordings in rats. J Neurosci Methods. 2009; 184(1):10-8.) Studies are conducted as follows:
Adult, male Wistar rats (approximately 270-300 g at time of surgery) are surgically fitted for chronic recording of EEG, EMG, and motion as follows: Rats are surgically prepared with a cranial implant consisting of four stainless steel screws for EEG recording (two frontal [3.9 mm anterior from bregma, and ±2.0 mm mediolaterally] and two occipital [6.4 mm posterior from bregma, ±5.5 mm mediolaterally]), and with two Teflon-coated stainless steel wires for EMG recording (positioned under the nuchal trapezoid muscles). All leads are soldered to a miniature connector (Microtech, Boothwyn, Pa.) prior to surgery. The implant assembly is affixed to the skull by the combination of the stainless steel EEG recording screws, cyanoacrylate applied between the implant connector and skull, and dental acrylic. Locomotor activity is monitored via a miniature transmitter (Minimitter PDT4000G, Philips Respironics, Bend, Oreg.) surgically placed into the abdomen. At least 3 weeks are allowed for recovery.
Each rat is housed individually within a microisolator cage modified with an inserted polycarbonate filter-top riser to allow more vertical headroom. A flexible cable that minimally restricts movement is connected at one end to a commutator afixed to the cage top and at the other end to the animal's cranial implant. Each cage is located within separate, ventilated compartments of a stainless steel sleep-wake recording chamber. Food and water are available ad libitum and the ambient temperature is maintained at about 23±1° C. A 24-hr light-dark cycle (LD 12:12) using fluorescent light is maintained throughout the study. Relative humidity averages approximately 50%. Animals are undisturbed for at least 30 hrs before and after each treatment.
The vehicle (placebo, methylcellulose 15 centipoise 0.25% in water) or one of the test compound dose levels is administered orally at 1 mL/kg pseudo-randomly such that no rat receives the same treatment twice, and no rat receives more than two of the 8 treatments in any one study. Each rat is removed from its cage for about a minute to be weighed and treated. At least 6 days “washout” period precede and follow each treatment. […]

SMILES: Cc1ccc2c(c1)Oc1sc(C)cc1C(N1CCN(CC(C)(C)C(=O)O)CC1)=N2 [Example 3, 3-[4-(2,8-Dimethylthieno[2,3-b][1,5]benzoxazepin-4-yl)piperazin-1-yl]-2,2-dimethyl-propanoic acid; 4-methylbenzenesulfonic acid]
- Rebound Insomnia, Adj. Mean (0.025 mg/kg PO): 0.3 min
- REM inhibition, Adj. Mean (0.025 mg/kg PO): -2.7 min
- Average Sleep Bout, Adj. Mean (0.025 mg/kg PO): 1.0 n-fold increase over vehicle controls
- Longest Sleep Bout, Adj. Mean (0.025 mg/kg PO): 1.0 n-fold increase over vehicle controls
- Cumulative Total sleep, Adj. Mean (0.025 mg/kg PO): -2.3 min
- Cumulative NREM sleep, Adj. Mean (0.025 mg/kg PO): 1.3 min
- Locomotor Activity Intensity, Adj. Mean (0.025 mg/kg PO): −0.1 LMA counts per minute of EEG-defined wakefulness
- Rebound Insomnia, Adj. Mean (0.25 mg/kg PO): 1.0 min
- REM inhibition, Adj. Mean (0.25 mg/kg PO): -1.5 min
- Average Sleep Bout, Adj. Mean (0.25 mg/kg PO): 1.6 n-fold increase over vehicle controls
- Longest Sleep Bout, Adj. Mean (0.25 mg/kg PO): 1.6 n-fold increase over vehicle controls
- Cumulative Total sleep, Adj. Mean (0.25 mg/kg PO): 33.5 min
- Cumulative NREM sleep, Adj. Mean (0.25 mg/kg PO): 34.3 min
- Locomotor Activity Intensity, Adj. Mean (0.25 mg/kg PO): −1.6 LMA counts per minute of EEG-defined wakefulness
- Rebound Insomnia, Adj. Mean (0.5 mg/kg PO): -0.3 min
- REM inhibition, Adj. Mean (0.5 mg/kg PO): 0.7 min
- Average Sleep Bout, Adj. Mean (0.5 mg/kg PO): 1.6 n-fold increase over vehicle controls
- Longest Sleep Bout, Adj. Mean (0.5 mg/kg PO): 2.1 n-fold increase over vehicle controls
- Cumulative Total sleep, Adj. Mean (0.5 mg/kg PO): 21.7 min
- Cumulative NREM sleep, Adj. Mean (0.5 mg/kg PO): 21.7 min
- Locomotor Activity Intensity, Adj. Mean (0.5 mg/kg PO): 0.0 LMA counts per minute of EEG-defined wakefulness
- Rebound Insomnia, Adj. Mean (1 mg/kg PO): -3.8 min
- REM inhibition, Adj. Mean (1 mg/kg PO): 0.1 min
- Average Sleep Bout, Adj. Mean (1 mg/kg PO): 1.7 n-fold increase over vehicle controls
- Longest Sleep Bout, Adj. Mean (1 mg/kg PO): 2.2 n-fold increase over vehicle controls
- Cumulative Total sleep, Adj. Mean (1 mg/kg PO): 30.8 min
- Cumulative NREM sleep, Adj. Mean (1 mg/kg PO): 31.9 min
- Locomotor Activity Intensity, Adj. Mean (1 mg/kg PO): −2.5 LMA counts per minute of EEG-defined wakefulness
- Rebound Insomnia, Adj. Mean (3 mg/kg PO): -1.3 min
- REM inhibition, Adj. Mean (3 mg/kg PO): -4.2 min
- Average Sleep Bout, Adj. Mean (3 mg/kg PO): 1.5 n-fold increase over vehicle controls
- Longest Sleep Bout, Adj. Mean (3 mg/kg PO): 1.9 n-fold increase over vehicle controls
- Cumulative Total sleep, Adj. Mean (3 mg/kg PO): 26.9 min
- Cumulative NREM sleep, Adj. Mean (3 mg/kg PO): 29.2 min
- Locomotor Activity Intensity, Adj. Mean (3 mg/kg PO): −2.6 LMA counts per minute of EEG-defined wakefulness
- Rebound Insomnia, Adj. Mean (10 mg/kg PO): 0.4 min
- REM inhibition, Adj. Mean (10 mg/kg PO): -12.1 min
- Average Sleep Bout, Adj. Mean (10 mg/kg PO): 1.7 n-fold increase over vehicle controls
- Longest Sleep Bout, Adj. Mean (10 mg/kg PO): 1.9 n-fold increase over vehicle controls
- Cumulative Total sleep, Adj. Mean (10 mg/kg PO): 32.8 min
- Cumulative NREM sleep, Adj. Mean (10 mg/kg PO): 36.7 min
- Locomotor Activity Intensity, Adj. Mean (10 mg/kg PO): −3.7 LMA counts per minute of EEG-defined wakefulness
- change in awake time following treatment, dose response curve (FIG. 2) (rat): does not result in rebound insomnia
- change in cumulative REM sleep time, dose response curve (FIG. 1) (rat): does not inhibit REM sleep
- change in distances moved during periods of wakefulness, dose response curve (FIG. 3) (rat): does not inhibit or stimulate normal activity
